Reference: patent US11407767B2, “Heterocyclyl substituted pyrrolopyridines that are inhibitors of the CDK12 kinase” (The University of Nottingham, priority 2017, dated 2022)
Where a name gives a salt, the structure may show the parent alone.

Biological target: CDK12/CycK (Homo sapiens, UniProt Q9NYV4)
Assay: Inhibition of CDK12 (ADP-Glo kinase assay)
Assay type: biochemical
Settings: 60 nM CDK12/CycK, 30 minutes pre-incubation, 1 μM ATP, 0.5 μM RBER-IRStide substrate, 1 h at 25° C., read-out: CDK12/cyclin K IC50
Method: Assay buffer comprised 50 mM HEPES pH 7.5, 1 mM DTT, 20 mM MgCl2, 3 mM MnCl2, 3 μM Na3VO4 and 50 μg/ml PEG8000. Kinase reactions were carried out in 384-well Optiplates™ (PerkinElmer 6007299). Test compounds were dissolved & diluted in dimethyl sulfoxide (DMSO) and cross diluted into assay buffer with a final DMSO concentration of 1% (v/v) in the assay. Test compounds (or 1% DMSO in control and blank wells) were pre-incubated with 60 nM CDK12/CycK for 30 minutes. After this time 1 μM Adenosine-5′-triphosphate (ATP) and 0.5 μM RBER-IRStide substrate (ProQinase 0863-0000-1) were added to commence the kinase reaction. Incubations were carried out for 1 h at 25° C. with kinase activity determined using the ADP-Glo™ reagent from Promega according to the manufacturer's instructions. Light generated is proportional to kinase activity and measured using a luminometer (EnVision, PerkinElmer). The signal obtained in the blank wells (containing no kinase) was subtracted from all other wells and IC50 values were determined by fitting a sigmoidal curve to % inhibition of control versus Log10 compound concentration.

CDK12/CycK, sequence (Q9NYV4 whole entry): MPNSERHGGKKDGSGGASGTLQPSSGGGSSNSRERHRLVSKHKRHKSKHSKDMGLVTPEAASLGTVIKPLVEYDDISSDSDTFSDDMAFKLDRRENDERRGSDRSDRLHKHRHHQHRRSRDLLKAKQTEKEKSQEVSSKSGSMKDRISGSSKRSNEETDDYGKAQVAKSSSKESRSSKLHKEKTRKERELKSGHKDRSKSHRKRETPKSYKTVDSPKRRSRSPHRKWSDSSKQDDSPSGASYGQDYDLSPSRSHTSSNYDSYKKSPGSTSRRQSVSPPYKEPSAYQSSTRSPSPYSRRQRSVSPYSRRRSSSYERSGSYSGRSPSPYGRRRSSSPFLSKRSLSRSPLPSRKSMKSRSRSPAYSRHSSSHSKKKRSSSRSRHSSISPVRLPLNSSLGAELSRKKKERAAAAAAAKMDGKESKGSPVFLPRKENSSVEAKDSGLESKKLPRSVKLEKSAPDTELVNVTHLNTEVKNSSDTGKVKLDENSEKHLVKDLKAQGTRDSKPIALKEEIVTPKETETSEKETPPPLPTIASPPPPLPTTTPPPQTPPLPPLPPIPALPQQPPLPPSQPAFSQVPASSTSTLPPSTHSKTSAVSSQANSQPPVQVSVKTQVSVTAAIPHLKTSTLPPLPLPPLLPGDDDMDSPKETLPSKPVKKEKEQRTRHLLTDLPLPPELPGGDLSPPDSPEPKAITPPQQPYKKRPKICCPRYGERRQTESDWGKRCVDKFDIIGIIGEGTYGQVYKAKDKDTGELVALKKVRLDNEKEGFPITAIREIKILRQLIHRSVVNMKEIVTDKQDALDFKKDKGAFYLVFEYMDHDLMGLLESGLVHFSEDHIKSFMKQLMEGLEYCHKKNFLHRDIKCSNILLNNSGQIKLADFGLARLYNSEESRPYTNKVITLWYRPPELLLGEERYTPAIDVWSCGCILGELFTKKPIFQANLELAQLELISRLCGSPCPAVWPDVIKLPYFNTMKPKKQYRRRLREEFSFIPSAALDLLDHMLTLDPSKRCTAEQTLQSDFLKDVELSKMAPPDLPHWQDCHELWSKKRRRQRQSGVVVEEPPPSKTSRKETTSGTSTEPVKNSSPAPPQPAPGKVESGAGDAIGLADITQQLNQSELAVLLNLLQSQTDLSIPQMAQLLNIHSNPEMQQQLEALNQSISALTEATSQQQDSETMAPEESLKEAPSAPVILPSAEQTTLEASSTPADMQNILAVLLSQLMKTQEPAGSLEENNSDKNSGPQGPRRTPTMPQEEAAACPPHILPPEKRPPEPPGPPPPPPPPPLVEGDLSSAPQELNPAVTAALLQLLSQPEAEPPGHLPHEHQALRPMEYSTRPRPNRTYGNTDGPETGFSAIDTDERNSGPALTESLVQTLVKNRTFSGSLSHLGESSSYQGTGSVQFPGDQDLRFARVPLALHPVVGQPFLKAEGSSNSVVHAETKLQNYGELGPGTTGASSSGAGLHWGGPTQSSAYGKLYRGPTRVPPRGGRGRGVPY
CDK12/CycK, sequence (O75909 whole entry partner): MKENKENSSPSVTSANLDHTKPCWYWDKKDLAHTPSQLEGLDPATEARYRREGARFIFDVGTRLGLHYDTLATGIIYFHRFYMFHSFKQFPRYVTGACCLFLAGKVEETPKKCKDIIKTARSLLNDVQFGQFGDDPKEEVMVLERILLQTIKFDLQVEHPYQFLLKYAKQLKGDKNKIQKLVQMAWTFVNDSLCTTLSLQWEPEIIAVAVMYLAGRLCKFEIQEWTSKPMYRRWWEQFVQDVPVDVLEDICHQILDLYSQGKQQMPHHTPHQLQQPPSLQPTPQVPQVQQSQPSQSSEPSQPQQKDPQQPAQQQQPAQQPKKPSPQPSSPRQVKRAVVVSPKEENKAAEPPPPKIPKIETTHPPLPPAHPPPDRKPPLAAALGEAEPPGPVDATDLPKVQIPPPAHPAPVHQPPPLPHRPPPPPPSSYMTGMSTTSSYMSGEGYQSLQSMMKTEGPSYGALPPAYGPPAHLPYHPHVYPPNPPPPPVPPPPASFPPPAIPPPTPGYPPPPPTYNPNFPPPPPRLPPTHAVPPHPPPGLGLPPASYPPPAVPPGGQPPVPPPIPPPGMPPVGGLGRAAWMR

Row | Structure (SMILES) | IC50 [nM]
1 | O=C(CCl)NCC(=O)N1CCC(c2cc3c(-c4cnn5ncccc45)ccnc3[nH]2)C1 (stereo not drawn) [Example 157, 2-Chloro-N-(2-oxo-2-(3-(4-(pyrazolo[1,5-b]pyridazin-3-yl)-1H-pyrrolo[2,3-b]pyridin-2-yl)pyrrolidin-1-yl)ethyl)acetamide] | < 100
2 | C=CC(=O)N1CCC[C@H](C(=O)NCc2cc3c(-c4cnn5ncccc45)ccnc3[nH]2)C1 [Example 186, (S)-1-Acryloyl-N-((4-(pyrazolo[1,5-b]pyridazin-3-yl)-1H-pyrrolo[2,3-b]pyridin-2-yl)methyl)piperidine-3-carboxamide] | 1000 to 30000
3 | C=CC(=O)N1CCC[C@@H]1C(=O)NCc1cc2c(-c3cnn4ncccc34)ccnc2[nH]1 [Example 182, (R)-1-Acryloyl-N-((4-(pyrazolo[1,5-b]pyridazin-3-yl)-1H-pyrrolo[2,3-b]pyridin-2-yl)methyl)pyrrolidine-2-carboxamide] | 1000 to 30000
4 | C=CC(=O)N1CCC[C@@H](C(=O)NCc2cc3c(-c4cnn5ncccc45)ccnc3[nH]2)C1 [Example 184, (R)-1-Acryloyl-N-((4-(pyrazolo[1,5-b]pyridazin-3-yl)-1H-pyrrolo[2,3-b]pyridin-2-yl)methyl)piperidine-3-carboxamide] | 1000 to 30000
5 | O=C(NCCc1cc2c(-c3cnn4ncccc34)ccnc2[nH]1)[C@@H]1CCCN1C(=O)CO [Example 78, (S)-1-(2-Hydroxyacetyl)-N-(2-(4-(pyrazolo[1,5-b]pyridazin-3-yl)-1H-pyrrolo[2,3-b]pyridin-2-yl)ethyl)pyrrolidine-2-carboxamide] | 100 to 1000
6 | CN(C)C/C=C/C(=O)N1CC[C@@H](C(=O)N2CCC(c3cc4c(-c5cnn6ncccc56)ccnc4[nH]3)CC2)C1 [Example 67, (R,E)-4-(Dimethylamino)-1-(3-(4-(4-(pyrazolo[1,5-b]pyridazin-3-yl)-1H-pyrrolo[2,3-b]pyridin-2-yl)piperidine-1-carbonyl)pyrrolidin-1-yl)but-2-en-1-one] | < 100
7 | Nc1cccc(-c2cc3c(-c4cnn5ncccc45)ccnc3[nH]2)c1 [Example 114, 3-(4-(Pyrazolo[1,5-b]pyridazin-3-yl)-1H-pyrrolo[2,3-b]pyridin-2-yl)aniline] | < 100
8 | CCn1nccc1-c1ccnc2[nH]ccc12 [Example 19, 4-(1-Ethyl-1H-pyrazol-5-yl)-1H-pyrrolo[2,3-b]pyridine] | 1000 to 30000
9 | O=C(NCCc1cc2c(-c3cnn4ncccc34)ccnc2[nH]1)[C@@H]1CCCN1 [Example 82, (S)—N-(2-(4-(pyrazolo[1,5-b]pyridazin-3-yl)-1H-pyrrolo[2,3-b]pyridin-2-yl)ethyl)pyrrolidine-2-carboxamide] | 100 to 1000
10 | C=CC(=O)N1CCC[C@H]1C(=O)N1CCC(c2cc3c(-c4cnn5ncccc45)ccnc3[nH]2)CC1 [Example 194, (S)-1-(2-(4-(4-(Pyrazolo[1,5-b]pyridazin-3-yl)-1H-pyrrolo[2,3-b]pyridin-2-yl)piperidine-1-carbonyl)pyrrolidin-1-yl)prop-2-en-1-one] | < 100
11 | COCCOc1cnn2ncc(-c3ccnc4[nH]ccc34)c2c1 [Example 24, 5-(2-Methoxyethoxy)-3-(1H-pyrrolo[2,3-b]pyridin-4-yl)pyrazolo[1,5-b]pyridazine] | 1000 to 30000
12 | O=C(NCCc1cc2c(-c3ccncc3)ccnc2[nH]1)[C@@H]1CCCN1 [Example 107, (S)—N-(2-(4-(Pyridin-4-yl)-1H-pyrrolo[2,3-b]pyridin-2-yl)ethyl)pyrrolidine-2-carboxamide] | 1000 to 30000
13 | C=CC(=O)Nc1cccc(C(=O)NCCc2cc3c(-c4cnn5ncccc45)c(Cl)cnc3[nH]2)c1 [Example 56, 3-Acrylamido-N-(2-(5-chloro-4-(pyrazolo[1,5-b]pyridazin-3-yl)-1H-pyrrolo[2,3-b]pyridin-2-yl)ethyl)benzamide] | < 100
14 | CN(C)C/C=C/C(=O)Nc1cncc(C(=O)N2CC[C@H](c3cc4c(-c5cnn6ncccc56)ccnc4[nH]3)C2)c1 [Example 68, (S,E)-4-(Dimethylamino)-N-(5-(3-(4-(pyrazolo[1,5-b]pyridazin-3-yl)-1H-pyrrolo[2,3-b]pyridin-2-yl)pyrrolidine-1-carbonyl)pyridin-3-yl)but-2-enamide] | < 100
15 | CCn1cc(-c2ccnc3[nH]ccc23)nn1 [Example 133, 4-(1-Ethyl-1H-1,2,3-triazol-4-yl)-1H-pyrrolo[2,3-b]pyridine] | 1000 to 30000
16 | c1cnn2ncc(-c3ccnc4[nH]c(CN5CCOCC5)cc34)c2c1 [Example 12, 4-((4-(Pyrazolo[1,5-b]pyridazin-3-yl)-1H-pyrrolo[2,3-b]pyridin-2-yl)methyl)morpholine] | 1000 to 30000
17 | C=CC(=O)Nc1cccc(C(=O)Nc2cccc(-c3cc4c(-c5cnn6ncccc56)ccnc4[nH]3)c2)c1 [Example 115, 3-Acrylamido-N-(3-(4-(pyrazolo[1,5-b]pyridazin-3-yl)-1H-pyrrolo[2,3-b]pyridin-2-yl)phenyl)benzamide] | < 100
18 | C=CC(=O)N1CCC[C@H]1C(=O)NCCc1cc2c(-c3cccnc3)ccnc2[nH]1 [Example 105, (S)-1-Acryloyl-N-(2-(4-(pyridin-3-yl)-1H-pyrrolo[2,3-b]pyridin-2-yl)ethyl)pyrrolidine-2-carboxamide] | 1000 to 30000
19 | C=CC(=O)N[C@H]1COC[C@@H]1C(=O)NCc1cc2c(-c3cnn4ncccc34)ccnc2[nH]1 [Example 58, (3R,4R)-4-Acrylamido-N-((4-(pyrazolo[1,5-b]pyridazin-3-yl)-1H-pyrrolo[2,3-b]pyridin-2-yl)methyl)tetrahydrofuran-3-carboxamide] | 1000 to 30000
20 | COCCC(=O)Nc1ccccc1C(=O)N1CCC(c2cc3c(-c4cnn5ncccc45)ccnc3[nH]2)C1 (stereo not drawn) [Example 163, 3-Methoxy-N-(2-(3-(4-(pyrazolo[1,5-b]pyridazin-3-yl)-1H-pyrrolo[2,3-b]pyridin-2-yl)pyrrolidine-1-carbonyl)phenyl)propanamide Formate Salt] | < 100
21 | C=CC(=O)N[C@H]1CC[C@H](C(=O)NCc2cc3c(-c4cnn5ncccc45)ccnc3[nH]2)CC1 [Example 191, (1r,4r)-4-Acrylamido-N-((4-(pyrazolo[1,5-b]pyridazin-3-yl)-1H-pyrrolo[2,3-b]pyridin-2-yl)methyl)cyclohexane-1-carboxamide] | 1000 to 30000
22 | CN(C)C/C=C/C(=O)Nc1cccc(C(=O)N2CCC(c3cc4c(-c5cnn6ncccc56)ccnc4[nH]3)C2)c1 (stereo not drawn) [Example 142, (E)-4-(Dimethylamino)-N-(3-(3-(4-(pyrazolo[1,5-b]pyridazin-3-yl)-1H-pyrrolo[2,3-b]pyridin-2-yl)pyrrolidine-1-carbonyl)phenyl)but-2-enamide] | < 100
23 | C=CC(=O)Nc1ccc(C(=O)N2CC[C@@H](c3cc4c(-c5cnn6ncccc56)ccnc4[nH]3)C2)cc1 (single isomer, unassigned) [Example 148, N-(4-(3-(4-(Pyrazolo[1,5-b]pyridazin-3-yl)-1H-pyrrolo[2,3-b]pyridin-2-yl)pyrrolidine-1-carbonyl)phenyl)acrylamide] | < 100
24 | C=CC(=O)NCC(=O)N1CCC(c2cc3c(-c4cnn5ncccc45)ccnc3[nH]2)C1 (stereo not drawn) [Example 152, N-(2-Oxo-2-(3-(4-(pyrazolo[1,5-b]pyridazin-3-yl)-1H-pyrrolo[2,3-b]pyridin-2-yl)pyrrolidin-1-yl)ethyl)acrylamide] | < 100
